Source: PMC6112376, “Comprehensive Analyses and Prioritization of Tox21 10K Chemicals Affecting Mitochondrial Function by in-Depth Mechanistic Studies” (Environmental Health Perspectives, 2018)
Like-named read-outs stand apart in the source and are kept apart here.

How the values were obtained:
[1] = system: hNSC; assay: MMP assay in human neural stem cells (hNSC); format: cell-based; settings: Homo sapiens, Neural stem cell, 1 h, read-out: hNSC IC50 (MMP)
[2] = system: HepG2 cells; assay: ROS-Glo hydrogen peroxide (ROS) assay; format: cell-based, human
[3] = system: HepG2 cells; assay: Intracellular ATP content (cell viability) assay; format: cell-based, human; settings: Homo sapiens, HepG2, 40 h
[4] = system: p53 (p53-bla HCT-116 cells); assay: p53 β-lactamase reporter gene assay; format: cell-based, human; settings: 16 h incubation; mean±SD of three experiments
[5] = system: Nrf2/ARE (ARE-bla HepG2 cells); assay: ARE β-lactamase reporter gene assay; format: cell-based, human; settings: 16 h incubation; mean±SD of three experiments
[6] = system: isolated rat liver mitochondria; assay: Oxygen consumption, Clark-type oxygen electrode; format: biochemical
[7] = system: mitochondrial respiratory chain complex I; format: biochemical, rat; settings: at 100μM
[8] = target: T1, mitochondrial respiratory chain complex II (Rattus norvegicus, UniProt P21913+Q641Z9+Q6PCT8+Q920L2); assay: Respiratory chain complex II activity; format: biochemical; settings: tested up to 100μM
T1 construct: Submitochondrial particles were prepared by subjecting the intact rat mitochondria, isolated as described above, to three successive freeze–thaw cycles; from tissue; host or cells: rat liver mitochondria (submitochondrial particles)
T1 sequence (Q920L2 35-656): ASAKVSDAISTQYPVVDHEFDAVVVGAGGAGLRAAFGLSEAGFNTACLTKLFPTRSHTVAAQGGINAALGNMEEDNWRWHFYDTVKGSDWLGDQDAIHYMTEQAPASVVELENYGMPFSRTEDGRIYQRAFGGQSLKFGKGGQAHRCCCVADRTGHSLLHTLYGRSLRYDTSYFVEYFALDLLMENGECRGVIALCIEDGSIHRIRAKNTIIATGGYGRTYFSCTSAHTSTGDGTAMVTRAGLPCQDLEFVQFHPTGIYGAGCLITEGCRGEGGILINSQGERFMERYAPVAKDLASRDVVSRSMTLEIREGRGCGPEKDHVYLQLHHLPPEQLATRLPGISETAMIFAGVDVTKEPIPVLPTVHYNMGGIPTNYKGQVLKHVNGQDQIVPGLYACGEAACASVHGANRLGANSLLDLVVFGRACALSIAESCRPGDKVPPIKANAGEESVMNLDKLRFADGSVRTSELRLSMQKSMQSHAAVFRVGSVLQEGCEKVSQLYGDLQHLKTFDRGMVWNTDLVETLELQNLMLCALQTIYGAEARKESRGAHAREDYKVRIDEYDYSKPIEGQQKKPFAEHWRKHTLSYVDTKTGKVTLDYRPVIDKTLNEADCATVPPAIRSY
T1 sequence (P21913 31-282): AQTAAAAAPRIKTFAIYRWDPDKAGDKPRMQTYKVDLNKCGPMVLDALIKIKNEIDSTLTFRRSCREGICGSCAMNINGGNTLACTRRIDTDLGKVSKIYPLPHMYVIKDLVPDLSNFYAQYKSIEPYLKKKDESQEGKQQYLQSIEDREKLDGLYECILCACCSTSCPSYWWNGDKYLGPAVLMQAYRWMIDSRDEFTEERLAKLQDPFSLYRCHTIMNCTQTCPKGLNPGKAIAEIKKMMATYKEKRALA
T1 sequence (Q641Z9 1-169): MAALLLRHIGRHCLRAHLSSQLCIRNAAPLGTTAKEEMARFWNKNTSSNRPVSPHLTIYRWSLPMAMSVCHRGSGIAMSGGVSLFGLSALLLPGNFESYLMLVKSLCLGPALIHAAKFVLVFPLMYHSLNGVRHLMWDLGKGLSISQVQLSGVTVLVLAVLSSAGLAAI
T1 sequence (Q6PCT8 57-159): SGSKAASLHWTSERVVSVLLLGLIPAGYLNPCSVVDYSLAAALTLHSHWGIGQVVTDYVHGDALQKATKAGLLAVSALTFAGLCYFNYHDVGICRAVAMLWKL

[9] = system: mitochondrial respiratory chain complex III; format: biochemical, rat
[10] = system: mitochondrial respiratory chain complex IV; format: biochemical, rat
[11] = system: mitochondrial respiratory chain complex V; format: biochemical, rat
[12] = system: HeLa cells expressing YFP-Parkin; assay: Parkin translocation assay; format: cell-based, human
[13] = system: rat primary hepatocytes
[14] = system: HepG2 cells; settings: cited from earlier work
[15] = system: Caenorhabditis elegans (Bristol N2); settings: Bristol N2 (wild type), Caenorhabditis elegans, in vivo
[16] = system: HepG2 cells; assay: cells; settings: Homo sapiens
[17] = system: Caenorhabditis elegans strain PE255; assay: In vivo C. elegans ATP status assay
[18] = system: rat primary hepatocytes; assay: MMP assay in rat primary hepatocytes; settings: Rattus norvegicus, Hepatocyte
[19] = system: Caenorhabditis elegans (Bristol N2); assay: C. elegans larval development and growth assay

Structure (SMILES): CC[C@@H](C(=O)[C@@H](C)[C@@H](O)[C@H](C)CCc1ccc(C)c(O)c1C(=O)O)[C@H]1O[C@](CC)([C@H]2CC[C@](O)(CC)[C@H](C)O2)C[C@@H]1C [Lasalocid sodium, reference compound]
- IC50 [1]: 540 nM
- ROS (HepG2) EC50 [2]: Inactive
- IC50 ([3]; read-out: ATP (HepG2, galactose) IC50): 35400 nM
- IC50 ([3]; read-out: ATP (HepG2, glucose) IC50): 30700 nM
- p53 (HCT-116) EC50 [4]: Inactive
- ARE (HepG2) EC50 [5]: Inactive
- Potential Mechanism [6]: Uncoupler + Inhibitor
- I-ADP, % of control (O2 consumption rate) ([6]; 0.032 µM): 102 (33.0) % of control
- I-sub, % of control (O2 consumption rate) ([6]; 0.032 µM): 114 (12.4) % of control
- II-ADP, % of control (O2 consumption rate) ([6]; 0.032 µM): 87 (52.0) % of control
- II-sub, % of control (O2 consumption rate) ([6]; 0.032 µM): 98 (20.1) % of control
- I-ADP, % of control (O2 consumption rate) ([6]; 0.16 µM): 105 (34.0) % of control
- I-sub, % of control (O2 consumption rate) ([6]; 0.16 µM): 118 (12.9) % of control
- II-ADP, % of control (O2 consumption rate) ([6]; 0.16 µM): 72 (43.1) % of control
- II-sub, % of control (O2 consumption rate) ([6]; 0.16 µM): 107 (22.1) % of control
- I-ADP, % of control (O2 consumption rate) ([6]; 0.8 µM): 90 (29.2) % of control
- I-sub, % of control (O2 consumption rate) ([6]; 0.8 µM): 120 (13.1) % of control
- II-ADP, % of control (O2 consumption rate) ([6]; 0.8 µM): 57 (34.1) % of control
- II-sub, % of control (O2 consumption rate) ([6]; 0.8 µM): 115 (23.6) % of control
- I-ADP, % of control (O2 consumption rate) ([6]; 4 µM): 81 (26.3) % of control
- I-sub, % of control (O2 consumption rate) ([6]; 4 µM): 164 (17.9) % of control
- II-ADP, % of control (O2 consumption rate) ([6]; 4 µM): 60 (35.9) % of control
- II-sub, % of control (O2 consumption rate) ([6]; 4 µM): 151 (31.2) % of control
- I-ADP, % of control (O2 consumption rate) ([6]; 20 µM): 107 (34.7) % of control
- I-sub, % of control (O2 consumption rate) ([6]; 20 µM): 347 (37.8) % of control
- II-ADP, % of control (O2 consumption rate) ([6]; 20 µM): 48 (28.6) % of control
- II-sub, % of control (O2 consumption rate) ([6]; 20 µM): 160 (33.0) % of control
- I-ADP, % of control (O2 consumption rate) ([6]; 100 µM): 16 (8.1) % of control
- I-sub, % of control (O2 consumption rate) ([6]; 100 µM): 32 (6.9) % of control
- II-ADP, % of control (O2 consumption rate) ([6]; 100 µM): 20 (11.6) % of control
- II-sub, % of control (O2 consumption rate) ([6]; 100 µM): 39 (13.7) % of control
- Complex I % inhibition [7]: 18.3±6.97 at 100μM %
- Complex II % inhibition (activity call) [8]: Inactive
- Complex III % inhibition (activity call) [9]: Inactive
- Complex IV % inhibition (activity call) [10]: Inactive
- Complex V % inhibition (activity call) [11]: Inactive
- Parkin recruitment [12]: Inactive
- MMP assays efficacy (%) Rat Hepatocytes [13]: -105±1%
- Rat hepatocytes (efficacy) (MMP) [13]: 1.27±0.23 ( −95.6±2.35 ) %
- MMP assays efficacy (%) qHTS-HepG2 [14]: -107±4%
- IC50 ([14]; read-out: MMP assays IC50 (µM), qHTS-HepG2): 1.14 ± 0.07 µM
- LEC (lowest effect concentration), larval growth assay [15]: ≤ 10 µM
- IC50 ([16]; HepG2, 1 h, read-out: HepG2 IC50 Galactose (MMP)): 1.58 µM
- IC50 ([16]; HepG2, 1 h, read-out: HepG2 IC50 Glucose (MMP)): 1.54 µM
- IC50 ([16]; HepG2, read-out: MMP assays IC50 (µM) HepG2): 1.38 µM
- Emax ([16]; HepG2, read-out: MMP assays efficacy (%) HepG2): 99%
- LUM: mean difference in luminescence (ATP content) relative to plate controls ([17]; 0.5 µM): -0.09691
- LUM: mean difference in luminescence (ATP content) relative to plate controls ([17]; 1 µM): 0.04489
- LUM: mean difference in luminescence (ATP content) relative to plate controls ([17]; 5 µM): 0.262
- LUM: mean difference in luminescence (ATP content) relative to plate controls ([17]; 10 µM): 0.184
- LUM: mean difference in luminescence (ATP content) relative to plate controls ([17]; 25 µM): 0.7982
- LUM: mean difference in luminescence (ATP content) relative to plate controls ([17]; 50 µM): 0.8669
- LUM: mean difference in luminescence (ATP content) relative to plate controls ([17]; 75 µM): 1.247
- LUM: mean difference in luminescence (ATP content) relative to plate controls ([17]; 100 µM): 1.4191
- effect on ATP content (in words) ([17]; 0.5–100μM): inhibited
- minimal effective concentration ([17]; Caenorhabditis elegans, read-out: LEC LUM: lowest effect concentration for luminescence, a measure of nematode ATP content): 25 µM
- IC50 ([18]; 1 h, read-out: Rat hepatocytes IC50 (MMP)): 1.27 µM
- IC50 ([18]; read-out: MMP assays IC50 (µM) Rat Hepatocytes): 1.3 ± 0.29 µM
- EXT: mean difference in nematode size relative to plate controls ([19]; 0.5 µM): 0.01876
- EXT: mean difference in nematode size relative to plate controls ([19]; 1 µM): -0.05443
- EXT: mean difference in nematode size relative to plate controls ([19]; 5 µM): 0.2782
- EXT: mean difference in nematode size relative to plate controls ([19]; 10 µM): 0.2152
- EXT: mean difference in nematode size relative to plate controls ([19]; 25 µM): 0.9725
- EXT: mean difference in nematode size relative to plate controls ([19]; 50 µM): 1.753
- EXT: mean difference in nematode size relative to plate controls ([19]; 75 µM): 1.778
- EXT: mean difference in nematode size relative to plate controls ([19]; 100 µM): 1.712
- effect on larval growth (in words) ([19]; 0.5–100μM): inhibited
- minimal effective concentration ([19]; Caenorhabditis elegans, read-out: LEC EXT: lowest effect concentration for extinction, a measure of nematode size): 5 µM
